Experimental data taken from patent US8741897B2, “Glucocorticoid mimetics, methods of making them, pharmaceutical compositions and uses thereof” (Boehringer Ingelheim Pharmaceuticals Inc., priority 2003, dated 2014).

Columns and labels:
[1] = target: T1, human glucocorticoid receptor (GR) complex (Homo sapiens, UniProt P04150); experiment: Glucocorticoid receptor competitive binding assay (fluorescence polarization, TAMRA-labeled dexamethasone probe); details: compounds of Formula (IA)
T1 construct: made in house; host or cells: insect expression system (baculovirus lysate)
T1 sequence (P04150 1-777): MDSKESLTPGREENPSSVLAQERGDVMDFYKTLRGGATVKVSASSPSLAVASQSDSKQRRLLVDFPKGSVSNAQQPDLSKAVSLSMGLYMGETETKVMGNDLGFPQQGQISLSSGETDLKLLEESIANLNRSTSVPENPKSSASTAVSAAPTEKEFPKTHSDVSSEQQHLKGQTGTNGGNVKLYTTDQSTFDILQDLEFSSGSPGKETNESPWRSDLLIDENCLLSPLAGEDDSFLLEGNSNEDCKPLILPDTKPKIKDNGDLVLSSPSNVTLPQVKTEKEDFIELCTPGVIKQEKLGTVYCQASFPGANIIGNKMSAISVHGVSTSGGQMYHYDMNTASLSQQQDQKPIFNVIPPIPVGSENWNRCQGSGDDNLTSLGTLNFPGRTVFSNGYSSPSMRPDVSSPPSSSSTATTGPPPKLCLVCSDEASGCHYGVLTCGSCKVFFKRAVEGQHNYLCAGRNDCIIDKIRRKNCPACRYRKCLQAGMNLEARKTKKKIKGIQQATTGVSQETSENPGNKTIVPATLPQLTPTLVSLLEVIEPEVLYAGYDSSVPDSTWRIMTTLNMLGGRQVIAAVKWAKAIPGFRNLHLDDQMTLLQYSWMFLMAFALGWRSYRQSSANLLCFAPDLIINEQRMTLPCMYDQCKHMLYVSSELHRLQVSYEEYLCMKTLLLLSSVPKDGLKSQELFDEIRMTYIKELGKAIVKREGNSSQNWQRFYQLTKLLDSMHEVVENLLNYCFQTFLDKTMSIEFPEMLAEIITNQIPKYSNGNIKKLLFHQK
Protocol: Compounds of the invention were evaluated for binding to the steroid receptor by a fluorescence polarization competitive binding assay. Detailed descriptions for preparation of recombinant glucocorticoid receptor (GR) complex used in the assay is described in U.S. patent application Pub.
A. Glucocorticoid Receptor Competitive Binding Assay
Step 1. Characterization of the Fluorescent Probe
The wavelengths for maximum excitation and emission of the fluorescent probe should first be measured. An example of such a probe is rhodamine (TAMRA)-labeled dexamethasone.
The affinity of the probe for the steroid receptor was then determined in a titration experiment. The fluorescence polarization value of the probe in assay buffer was measured on an SLM-8100 fluorometer using the excitation and emission maximum values described above. Aliquots of expression vector lysate were added and fluorescence polarization was measured after each addition until no further change in polarization value was observed. Non-linear least squares regression analysis was used to calculate the dissociation constant of the probe from the polarization values obtained for lysate binding to the probe.
Step 2. Screening for Inhibitors of Probe Binding
This assay uses fluorescence polarization (FP) to quantitate the ability of test compounds to compete with tetramethyl rhodamine (TAMRA)-labeled dexamethasone for binding to a human glucocorticoid receptor (GR) complex prepared from an insect expression system. The assay buffer was: 10 mM TES, 50 mM KCl, 20 mM Na2MoO4.2H2O, 1.5 mM EDTA, 0.04% w/v CHAPS, 10% v/v glycerol, 1 mM dithiothreitol, pH 7.4. Test compounds were dissolved to 1 mM in neat DMSO and then further diluted to 10× assay concentration in assay buffer supplemented with 10% v/v DMSO. Test compounds were serially diluted at 10× assay concentrations in 10% DMSO-containing buffer in 96-well polypropylene plates. Binding reaction mixtures were prepared in 96-well black Dynex microtiter plates by sequential addition of the following assay components to each well: 15 μL of 10× test compound solution, 85 μL of GR-containing baculovirus lysate diluted 1:170 in assay buffer, and 50 μL of 15 nM TAMRA-labeled dexamethasone. Positive controls were reaction mixtures containing no test compound; negative controls (blanks) were reaction mixtures containing 0.7 μM to 2 μM dexamethasone. […] IC50 values were determined by iterative non-linear curve fitting of the FP signal data to a 4-parameter logistic equation.

[2] = tested on: glucocorticoid receptor function; experiment: one or more of the above assays (GR binding and glucocorticoid receptor cell assays: aromatase, IL-6, TAT, MMTV-Luc, IL-8, ICAM-Luc); assay type: cell-based; details: assay not specified per compound

Cc1ccc(C)c(C(C)(C)CC(O)(Cc2cc3ccccc3[nH]2)C(F)(F)F)c1 (stereo not shown) [4-(2,5-Dimethylphenyl)-1,1,1-trifluoro-2-(1H-indol-2-ylmethyl)-4-methylpentan-2-ol]
activity in the GR binding assay [1]: potent activity
activity as agonists of the glucocorticoid receptor function in one or more of the above assays [2]: potent agonists

CC(C)(CC(O)(Cc1ccnc2ccccc12)C(F)(F)F)c1cccc(O)c1 (stereo not shown) [3-(4,4,4-Trifluoro-3-hydroxy-1,1-dimethyl-3-quinolin-4-ylmethylbutyl)phenol]
activity in the GR binding assay [1]: potent activity
activity as agonists of the glucocorticoid receptor function in one or more of the above assays [2]: potent agonists

Cc1cccc(C(C)(C)CC(O)(Cc2ccnc3ccccc23)C(F)(F)F)c1 (stereo not shown) [1,1,1-Trifluoro-4-methyl-2-quinolin-4-ylmethyl-4-m-tolylpentan-2-ol]
activity in the GR binding assay [1]: potent activity
activity as agonists of the glucocorticoid receptor function in one or more of the above assays [2]: potent agonists

COc1ccc(F)cc1C(C)(C)CC(O)(Cc1cc(C)nc2ccccc12)C(F)(F)F (stereo not shown) [1,1,1-Trifluoro-4-(5-fluoro-2-methoxyphenyl)-4-methyl-2-(2-methylquinolin-4-ylmethyl)pentan-2-ol]
activity in the GR binding assay [1]: potent activity
activity as agonists of the glucocorticoid receptor function in one or more of the above assays [2]: potent agonists

COc1ccc(F)cc1C(C)(C)CC(O)(Cc1cc2nnccc2[nH]1)C(F)(F)F (stereo not shown) [1,1,1-Trifluoro-4-(5-fluoro-2-methoxyphenyl)-4-methyl-2-(5H-pyrrolo[3,2-c]pyridazin-6-ylmethyl)pentan-2-ol]
activity in the GR binding assay [1]: potent activity
activity as agonists of the glucocorticoid receptor function in one or more of the above assays [2]: potent agonists

CC(C)(CC(O)(Cc1ccnc2ccccc12)C(F)(F)F)c1ccccc1C(F)(F)F (stereo not shown) [1,1,1-Trifluoro-4-methyl-2-quinolin-4-ylmethyl-4-(2-trifluoromethylphenyl)pentan-2-ol]
activity in the GR binding assay [1]: potent activity
activity as agonists of the glucocorticoid receptor function in one or more of the above assays [2]: potent agonists

Cc1cc2c(c(C(C)(C)CC(O)(Cc3cc4ccncc4[nH]3)C(F)(F)F)c1)OCC2 (stereo not shown) [1,1,1-Trifluoro-4-methyl-4-(5-methyl-2,3-dihydrobenzofuran-7-yl)-2-(1H-pyrrolo[2,3-c]pyridin-2-ylmethyl)pentan-2-ol]
activity in the GR binding assay [1]: potent activity
activity as agonists of the glucocorticoid receptor function in one or more of the above assays [2]: potent agonists

COc1cc(F)ccc1C(C)(C)CC(O)(Cc1cc2c(C)ccc(F)c2[nH]1)C(F)(F)F (stereo not shown) [1,1,1-Trifluoro-4-(4-fluoro-2-methoxyphenyl)-2-(7-fluoro-4-methyl-1H-indol-2-ylmethyl)-4-methylpentan-2-ol]
activity in the GR binding assay [1]: potent activity
activity as agonists of the glucocorticoid receptor function in one or more of the above assays [2]: potent agonists

CC(C)c1ccc(O)c(C(C)(C)CC(O)(Cc2[nH]c3ccccc3c2C#N)C(F)(F)F)c1 (stereo not shown) [2-[2-Hydroxy-4-(2-hydroxy-5-isopropylphenyl)-4-methyl-2-trifluoromethylpentyl]-1H-indole-3-carbonitrile]
activity in the GR binding assay [1]: potent activity
activity as agonists of the glucocorticoid receptor function in one or more of the above assays [2]: potent agonists

Cc1ccc(F)cc1C(C)(C)CC(O)(Cc1cc2ccnc(F)c2[nH]1)C(F)(F)F (stereo not shown) [1,1,1-Trifluoro-4-(5-fluoro-2-methylphenyl)-2-(7-fluoro-1H-pyrrolo[2,3-c]pyridin-2-ylmethyl)-4-methylpentan-2-ol]
activity in the GR binding assay [1]: potent activity
activity as agonists of the glucocorticoid receptor function in one or more of the above assays [2]: potent agonists

Cc1cc(CC(O)(CC(C)(C)c2ccc(F)cc2O)C(F)(F)F)cc(C)n1 (stereo not shown) [2-[3-(2,6-Dimethylpyridin-4-ylmethyl)-4,4,4-trifluoro-3-hydroxy-1,1-dimethylbutyl]-5-fluorophenol]
activity in the GR binding assay [1]: potent activity
activity as agonists of the glucocorticoid receptor function in one or more of the above assays [2]: potent agonists
